Results published in ChEMBL document CHEMBL1201862, “PubChem BioAssay data set” (2004).
The source made the active and inactive calls.

Tests used:
cells [1] = assay type: functional, cell-based
cells [2] = assay type: functional, cell-based; remark: listed apart in the source
Cysteine protease ATG4B = target: T1, Cysteine protease ATG4B (Homo sapiens, UniProt Q9Y4P1); assay type: functional;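 further: Fluorescence-based dose-response confirmation assay measuring inhibition of ATG4B activity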
T1 sequence (Q9Y4P1 whole entry): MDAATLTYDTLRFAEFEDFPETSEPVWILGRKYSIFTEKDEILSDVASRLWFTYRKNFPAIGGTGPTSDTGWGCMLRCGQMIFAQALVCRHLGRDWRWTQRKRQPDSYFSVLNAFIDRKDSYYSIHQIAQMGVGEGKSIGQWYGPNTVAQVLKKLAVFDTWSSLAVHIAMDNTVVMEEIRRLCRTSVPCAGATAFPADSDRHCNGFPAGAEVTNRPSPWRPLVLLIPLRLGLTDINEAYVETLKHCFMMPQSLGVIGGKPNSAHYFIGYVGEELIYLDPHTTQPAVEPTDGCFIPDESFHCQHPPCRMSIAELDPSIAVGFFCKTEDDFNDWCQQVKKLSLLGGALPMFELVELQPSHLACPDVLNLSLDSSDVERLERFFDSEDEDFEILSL

Phospholipase A2 = Phospholipase A2 (Homo sapiens, UniProt P04054); assay type: functional;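 further: confirmatory dose-response counterscreen on phospholipase A2, testing hits that came from an ultra-high-throughput screen for ATG4B inhibitors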
[3] = target: T2, High affinity choline transporter 1 (Homo sapiens, UniProt Q9GZV3); experiment: human choline transporter blockers, potency – cell-based, 5-point CRC, membrane potential dye, dose response (AID 504840); assay type: functional
T2 sequence (Q9GZV3 whole entry): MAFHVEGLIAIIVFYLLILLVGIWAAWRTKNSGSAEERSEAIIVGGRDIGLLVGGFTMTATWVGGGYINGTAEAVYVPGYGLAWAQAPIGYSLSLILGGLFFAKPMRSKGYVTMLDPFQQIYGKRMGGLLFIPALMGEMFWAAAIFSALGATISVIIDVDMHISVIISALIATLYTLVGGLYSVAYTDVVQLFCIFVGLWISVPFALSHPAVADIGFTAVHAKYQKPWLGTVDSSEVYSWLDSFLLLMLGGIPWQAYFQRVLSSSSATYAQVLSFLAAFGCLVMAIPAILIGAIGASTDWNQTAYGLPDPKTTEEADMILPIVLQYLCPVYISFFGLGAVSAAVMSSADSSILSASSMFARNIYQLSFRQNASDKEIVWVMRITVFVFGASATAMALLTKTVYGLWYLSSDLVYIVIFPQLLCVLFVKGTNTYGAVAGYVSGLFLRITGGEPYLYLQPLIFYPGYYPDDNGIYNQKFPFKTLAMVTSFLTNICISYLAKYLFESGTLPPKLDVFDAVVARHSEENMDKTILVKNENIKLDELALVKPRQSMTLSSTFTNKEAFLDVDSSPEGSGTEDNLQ

[4] = target: T2, High affinity choline transporter 1; experiment: human choline transporter blockers, potency – cell-based, 10-point CRC, membrane potential dye, dose response (AID 588401); assay type: functional;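 further: membrane potential dye fluorescence of choline-evoked depolarization via CHT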
[5] = target: Fructose-bisphosphate aldolase (Mycobacterium tuberculosis, UniProt P9WQA3); experiment: Fluorescence-based biochemical high throughput dose response assay for inhibitors of the fructose-bisphosphate aldolase (FBA) of M. tuberculosis.; assay type: functional
[6] = target: 5-hydroxytryptamine receptor 2A (Mus musculus, UniProt P35363); assay type: functional, cell-based;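 further: CHO-K1 cells with tagged receptor and beta-arrestin; agonist potency measured as compound-induced activation of the receptor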
Mu-type opioid receptor = Mu-type opioid receptor (Homo sapiens, UniProt P35372); assay type: functional, cell-based;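 further: U2OS cells with beta-arrestin recruitment to OPRM1 by beta-gal complementation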
[7] = bead-based luminescence quenchers, dual-tagged ARNT – biochemical, AlphaScreen, cherry-pick, artefact control for ARNT-TACC3 interaction inhibitor project, dose response (AID 651705); assay type: functional;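 further: AlphaScreen bead proximity signal that flags compounds interfering with the detection technology; potency reflects signal decrease which marks the compound as an assay artifact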
[8] = inhibition of ARNT PAS-B/TACC3 complex formation – biochemical, AlphaScreen, cherry-picked samples, confirmation (AID 651703); assay type: functional, Homo sapiens;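 further: His-tagged ARNT PAS-B domain paired with GST-TACC3 E629A dimer coactivator fragment; potency of inhibitors that break up the complex and lower AlphaScreen signal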
[9] = target: Adenosylmethionine-8-amino-7-oxononanoate aminotransferase (Mycobacterium tuberculosis, UniProt P9WQ81); experiment: Mycobacterium tuberculosis BioA enzyme inhibitor Measured in Biochemical System Using Plate Reader - 2163-02_Inhibitor_Dose_CherryPick_Activity.; assay type: functional, Mycobacterium tuberculosis UT205
Steroidogenic factor 1 = Steroidogenic factor 1 (Homo sapiens, UniProt Q13285); experiment: Counterscreen for inverse agonists of the liver receptor homolog-1 (LRH-1; NR5A2): Luminescence-based cell-based high throughput dose response assay to identify inverse agonists of the Steroidogenic Factor 1 Nuclear Receptor (SF1; NR5A1).; assay type: functional
[10] = target: Nuclear receptor subfamily 5 group A member 2 (Homo sapiens, UniProt O00482); assay type: functional, cell-based;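 further: HEK293T cells transfected with LRH-1 and a StAR promoter luciferase reporter; potency for inhibitors that lower LRH-1 driven reporter light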
[11] = nonselective StAR promoter luciferase inhibitors – cell-based, luminescence, luciferase reporter, counter-screen for LRH-1 inverse agonist project, dose response (AID 651969); assay type: functional
[12] = microbe, parasite or virus in culture; assay type: functional; conditions: Mycobacterium tuberculosis
Streptococcus = experiment: GAS UMAA2166 growth inhibition – luminescence, BacTiterGlo, counter-screen for streptokinase expression inhibitor project, dose response (AID 1915); assay type: functional, organism-based;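 further: potency for reduction of bacterial viability or growth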
[13] = system: Streptococcus sp. 'group A'; experiment: Streptococcus pyogenes SK(-)GAS viability under kanamycin – luminescence, BacTiterGlo, confirmation, counter-screen for streptokinase expression inhibitor project, dose response (AID 1900); assay type: functional, organism-based
cells [14] = assay type: functional
Streptokinase A = target: T3, Streptokinase A (Streptococcus pyogenes serotype M1, UniProt P10520); experiment: viability-normalized secreted streptokinase activity reduction – plasminogen activation absorbance, OD405, dose response (AID 1914); assay type: functional, Streptococcus pyogenes M1 GAS;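 further: secreted streptokinase activity via plasminogen activation per viability signal from cell pellet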
T3 sequence (P10520 whole entry): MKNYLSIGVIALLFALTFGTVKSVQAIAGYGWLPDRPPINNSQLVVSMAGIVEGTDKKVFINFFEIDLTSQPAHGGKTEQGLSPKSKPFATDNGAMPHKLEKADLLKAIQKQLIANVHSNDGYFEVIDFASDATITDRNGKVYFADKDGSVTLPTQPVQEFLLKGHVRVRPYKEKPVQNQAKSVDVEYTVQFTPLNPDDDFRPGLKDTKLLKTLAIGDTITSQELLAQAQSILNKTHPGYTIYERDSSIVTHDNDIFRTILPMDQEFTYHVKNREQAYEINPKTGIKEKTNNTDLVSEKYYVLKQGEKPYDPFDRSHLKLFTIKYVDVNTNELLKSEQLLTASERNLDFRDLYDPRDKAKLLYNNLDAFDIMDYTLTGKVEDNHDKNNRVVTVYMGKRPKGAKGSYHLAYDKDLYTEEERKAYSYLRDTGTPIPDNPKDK

[15] = viability of uninfected HEp-2 cells – cell-based, HTS, cytotoxicity control for RSV inhibitor project, dose response (AID 2410); assay type: functional; conditions: human respiratory syncytial virus
Vero = experiment: cells; assay type: functional; conditions: Chlorocebus sabaeus
[16] = target: Eukaryotic translation initiation factor 4E (Mus musculus, UniProt P63073); experiment: blockers of eIF4G binding by eIF4E – biochemical, TR-FRET, dose response (AID 855); assay type: functional;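 further: potency for disrupting eIF4E binding to eIF4GI seen as loss of FRET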
Chain of Eukaryotic translation initiation factor 4E (P63073 whole entry): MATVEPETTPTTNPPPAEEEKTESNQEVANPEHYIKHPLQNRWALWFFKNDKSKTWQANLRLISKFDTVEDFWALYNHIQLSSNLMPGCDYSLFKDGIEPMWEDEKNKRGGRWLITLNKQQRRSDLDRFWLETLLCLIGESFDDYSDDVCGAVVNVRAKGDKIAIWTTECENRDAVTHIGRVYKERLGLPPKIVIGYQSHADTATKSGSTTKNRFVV

Chain of Fructose-bisphosphate aldolase (P9WQA3 whole entry): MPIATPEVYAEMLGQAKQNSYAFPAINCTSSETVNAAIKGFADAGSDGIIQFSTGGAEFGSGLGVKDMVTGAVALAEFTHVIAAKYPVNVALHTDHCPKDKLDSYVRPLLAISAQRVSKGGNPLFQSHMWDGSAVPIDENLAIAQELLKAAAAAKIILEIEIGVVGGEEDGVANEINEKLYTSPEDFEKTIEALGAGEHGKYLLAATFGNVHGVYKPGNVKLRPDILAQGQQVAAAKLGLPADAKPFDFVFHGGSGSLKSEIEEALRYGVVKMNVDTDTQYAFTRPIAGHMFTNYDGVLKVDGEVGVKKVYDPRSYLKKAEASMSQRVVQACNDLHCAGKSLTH
Chain of Phospholipase A2 (P04054 whole entry): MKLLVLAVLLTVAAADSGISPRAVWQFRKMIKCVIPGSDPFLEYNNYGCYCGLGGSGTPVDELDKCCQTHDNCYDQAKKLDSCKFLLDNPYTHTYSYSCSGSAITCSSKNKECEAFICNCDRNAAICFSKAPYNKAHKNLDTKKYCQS
Chain of Nuclear receptor subfamily 5 group A member 2 (O00482 whole entry): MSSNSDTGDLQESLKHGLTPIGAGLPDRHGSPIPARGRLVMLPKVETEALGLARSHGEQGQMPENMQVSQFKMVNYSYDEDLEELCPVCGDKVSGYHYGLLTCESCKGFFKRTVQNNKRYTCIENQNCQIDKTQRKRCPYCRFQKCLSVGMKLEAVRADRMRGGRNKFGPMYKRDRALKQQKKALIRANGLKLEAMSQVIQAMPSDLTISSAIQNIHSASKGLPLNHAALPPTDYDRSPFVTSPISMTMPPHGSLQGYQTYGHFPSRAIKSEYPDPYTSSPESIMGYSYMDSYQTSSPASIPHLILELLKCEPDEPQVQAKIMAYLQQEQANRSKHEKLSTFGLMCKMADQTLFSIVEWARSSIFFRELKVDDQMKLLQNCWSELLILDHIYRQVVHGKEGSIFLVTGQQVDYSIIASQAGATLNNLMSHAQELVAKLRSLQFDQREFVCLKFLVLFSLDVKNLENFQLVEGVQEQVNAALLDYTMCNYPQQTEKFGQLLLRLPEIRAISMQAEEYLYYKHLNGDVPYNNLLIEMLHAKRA
Chain of Adenosylmethionine-8-amino-7-oxononanoate aminotransferase (P9WQ81 whole entry): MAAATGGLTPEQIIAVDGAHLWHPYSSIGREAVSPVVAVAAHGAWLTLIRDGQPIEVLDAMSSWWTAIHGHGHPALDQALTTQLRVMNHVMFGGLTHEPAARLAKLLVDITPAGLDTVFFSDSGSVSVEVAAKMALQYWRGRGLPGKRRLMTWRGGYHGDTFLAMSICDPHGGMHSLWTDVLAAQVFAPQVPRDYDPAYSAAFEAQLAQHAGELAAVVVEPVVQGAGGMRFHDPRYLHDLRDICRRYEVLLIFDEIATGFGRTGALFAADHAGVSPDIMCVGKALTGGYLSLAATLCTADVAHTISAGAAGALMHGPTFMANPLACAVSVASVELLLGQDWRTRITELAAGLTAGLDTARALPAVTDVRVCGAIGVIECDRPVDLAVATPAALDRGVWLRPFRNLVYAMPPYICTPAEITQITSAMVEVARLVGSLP
Chain of Mu-type opioid receptor (P35372 whole entry): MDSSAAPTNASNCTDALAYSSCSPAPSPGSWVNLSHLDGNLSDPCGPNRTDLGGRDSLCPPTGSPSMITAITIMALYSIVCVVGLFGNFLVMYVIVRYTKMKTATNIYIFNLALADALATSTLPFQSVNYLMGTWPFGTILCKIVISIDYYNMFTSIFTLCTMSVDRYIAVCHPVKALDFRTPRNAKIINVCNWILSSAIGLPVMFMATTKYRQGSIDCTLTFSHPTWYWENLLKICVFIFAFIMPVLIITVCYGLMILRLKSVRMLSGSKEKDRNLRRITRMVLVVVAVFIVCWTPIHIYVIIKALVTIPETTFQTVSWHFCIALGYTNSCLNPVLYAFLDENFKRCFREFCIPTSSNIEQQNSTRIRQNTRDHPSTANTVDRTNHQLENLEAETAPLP
Chain of Steroidogenic factor 1 (Q13285 whole entry): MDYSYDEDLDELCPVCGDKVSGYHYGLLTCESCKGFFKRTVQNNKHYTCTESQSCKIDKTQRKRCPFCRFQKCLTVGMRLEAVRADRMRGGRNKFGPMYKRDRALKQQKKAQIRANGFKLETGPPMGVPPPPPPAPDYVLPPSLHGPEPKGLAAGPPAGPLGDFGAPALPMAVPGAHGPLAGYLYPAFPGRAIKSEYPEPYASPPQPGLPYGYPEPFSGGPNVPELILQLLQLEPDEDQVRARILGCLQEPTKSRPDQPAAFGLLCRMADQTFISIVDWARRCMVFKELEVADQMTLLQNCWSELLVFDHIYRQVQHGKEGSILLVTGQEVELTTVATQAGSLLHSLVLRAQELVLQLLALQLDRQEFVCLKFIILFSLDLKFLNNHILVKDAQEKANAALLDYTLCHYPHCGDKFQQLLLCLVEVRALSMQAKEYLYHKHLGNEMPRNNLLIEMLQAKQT
Chain of 5-hydroxytryptamine receptor 2A (P35363 whole entry): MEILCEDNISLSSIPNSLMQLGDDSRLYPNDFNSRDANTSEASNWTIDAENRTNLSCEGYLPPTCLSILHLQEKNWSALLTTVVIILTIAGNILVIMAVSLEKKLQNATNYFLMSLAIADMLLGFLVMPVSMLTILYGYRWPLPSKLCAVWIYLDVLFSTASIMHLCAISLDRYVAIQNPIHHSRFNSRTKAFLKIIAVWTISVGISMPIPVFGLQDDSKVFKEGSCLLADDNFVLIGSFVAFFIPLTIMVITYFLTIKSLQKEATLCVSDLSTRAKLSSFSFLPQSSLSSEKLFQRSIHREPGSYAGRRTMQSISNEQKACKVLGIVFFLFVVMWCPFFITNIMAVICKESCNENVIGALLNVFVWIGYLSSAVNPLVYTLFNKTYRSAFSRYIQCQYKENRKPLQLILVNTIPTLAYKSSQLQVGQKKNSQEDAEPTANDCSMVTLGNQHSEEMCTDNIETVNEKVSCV

Question: Which results are given for `O=C(O)C1CC=C(Cl)CC1C(=O)NCC1OCCc2ccccc21` (centres undefined)?
Answer: EC50 (cells [1]): > 29.9 µM (inactive); IC50 (cells [2]): > 29.9 µM (inactive)

Question: Which results are given for `Cc1noc(C)c1COc1ccc(C(=O)OCC(=O)NCc2ccccc2Cl)cc1`?
Answer: IC50 (Cysteine protease ATG4B): 22.5 µM (inactive); IC50 (Phospholipase A2): 6.59 µM (active)

Question: With `O=[N+]([O-])c1ccc(Sc2ncc3ccccn23)nc1` as the compound, how does the IC50 [3] read?
Answer: Its IC50 is 3.9 µM (active).

Question: And the IC50 [4]?
Answer: The IC50 was 1.13 µM (active).

Question: For `O=C(NC1CCCCC1)c1ccc2[nH]c(=O)c(=O)[nH]c2c1`, which IC50 [5] is on record?
Answer: The IC50 was 2.36 µM (active).

Question: Which EC50 [6] does the source give for `C1=CC2CC1CC2CN1CCN(c2ccccc2)CC1` (centres undefined) here?
Answer: The EC50 was 76.1 µM (inactive).

Question: And the EC50 (Mu-type opioid receptor)?
Answer: Its EC50 is 92.5 µM (inactive).

Question: For `COc1ccccc1NC(=O)CSc1ccc2nnc(-c3cccnc3)n2n1`, which AC50 [7] is on record?
Answer: Its AC50 is 127 µM (active).

Question: What about the AC50 [8] of the same compound?
Answer: The AC50 was 118 µM (active).

Question: Which AC50 [9] does the source give for `C[C@@H](C(=O)N1CCN(Cc2ccc3c(c2)OCO3)CC1)n1nnc2ccccc2c1=O` here?
Answer: Its AC50 is 4.11 µM (active).

Question: For `COc1cc(NC(=O)Cn2ccsc2=N)c(C)cc1[N+](=O)[O-]`, which IC50 (Steroidogenic factor 1) is on record?
Answer: Its IC50 is 25.3 µM (inactive).

Question: And the IC50 [10]?
Answer: Its IC50 is 35.9 µM (inactive).

Question: And the IC50 [11]?
Answer: The IC50 was 35.9 µM (inactive).

Question: Which results are given for `Cc1c(Cl)cccc1-c1ccc(CNCc2ccccn2)o1`?
Answer: AC50 [7]: 87.3 µM (active); CC50 [12]: > 40 µM (active); EC50 (Streptococcus): 70.2 µM (active); EC50 [13]: 13 µM (active); IC50 (cells [14]): 0.55 µM (active); EC50 (Streptokinase A): > 150 µM (not active)

Question: For `Cc1cc(=O)oc2cc(OCCc3ccccc3)ccc12`, which IC50 [5] is on record?
Answer: Its IC50 is 1.35 µM (active).

Question: And the CC50 [15]?
Answer: The CC50 was 35.1 µM (active).

Question: What about the CC50 (Vero) of the same compound?
Answer: The CC50 was > 25 µM (active).

Question: What does the source list for `O=c1[nH]ncc(N2CCCC2)c1Cl`?
Answer: IC50 [3]: 8.71 µM (active); IC50 [16]: 50 µM (inactive); IC50 [4]: 7.51 µM (active)

Question: For `NC(=O)/C(=C\c1ccccc1)NC(=O)/C=C/c1ccccc1`, which IC50 (Cysteine protease ATG4B) is on record?
Answer: The IC50 was 19.1 µM (active).

Question: What about the IC50 (Phospholipase A2) of the same compound?
Answer: Its IC50 is 15.5 µM (active).
